Experimental data published in patent US20230026611A1, “ARYL HETEROCYCLIC COMPOUNDS AS Kv1.3 POTASSIUM SHAKER CHANNEL BLOCKERS” (D. E. Shaw Research, LLC, priority 2019, published 2023).

How the values were obtained:
[1] = biological target: T1, Kv1.3 potassium channel (Homo sapiens, UniProt P22001); assay: Kv1.3 potassium channel blocker activity, automated whole-cell patch clamp (Patchliner) in CHO-K1 cells stably expressing Kv1.3; format: cell-based; settings: CHO-K1 cells stably expressing Kv1.3; patch clamp, current inhibition; read-out: Kv1.3 IC50
T1 construct: expressed in transfected cells
T1 sequence (P22001 whole entry): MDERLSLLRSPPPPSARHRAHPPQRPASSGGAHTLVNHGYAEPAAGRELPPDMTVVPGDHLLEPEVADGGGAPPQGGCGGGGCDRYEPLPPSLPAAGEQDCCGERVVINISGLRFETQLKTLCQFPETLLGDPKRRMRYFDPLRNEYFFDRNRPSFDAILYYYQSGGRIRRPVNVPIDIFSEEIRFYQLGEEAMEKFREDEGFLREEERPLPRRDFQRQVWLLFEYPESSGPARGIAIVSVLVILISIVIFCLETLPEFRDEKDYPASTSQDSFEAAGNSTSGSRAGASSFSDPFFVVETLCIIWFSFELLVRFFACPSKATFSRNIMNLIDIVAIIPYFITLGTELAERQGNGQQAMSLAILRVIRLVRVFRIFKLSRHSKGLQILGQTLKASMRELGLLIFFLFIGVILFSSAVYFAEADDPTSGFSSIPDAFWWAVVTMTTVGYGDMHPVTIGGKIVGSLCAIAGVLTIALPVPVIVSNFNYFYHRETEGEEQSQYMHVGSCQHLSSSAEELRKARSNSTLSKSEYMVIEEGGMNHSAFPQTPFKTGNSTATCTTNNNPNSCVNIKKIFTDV
Protocol: Example 82. Evaluation of Kv1.3 potassium channel blocker activities
This assay is used to evaluate the disclosed compounds' activities as Kv1.3 potassium channel blockers.
CHO-K1 cells stably expressing Kv1.3 were grown in DMEM containing 10% heat-inactivated FBS, 1 mM sodium pyruvate, 2 mM L-glutamine, and G418 (500 μg/ml).
All compounds were dissolved in DMSO at 30 mM.
The currents were evoked by applying 100 ms depolarizing pulses from −90 mV (holding potential) to +40 mV were applied with 0.1 Hz frequency. […] 10-second breaks were used between pulse trains (see Table A below).
Data were sampled at 10 kHz without filtering. Passive leak currents were subtracted online using a P/4 procedure (HEKA Elektronik Dr. Schulze GmbH). […] Total compound incubation time before the next pulse train was not longer than 10 seconds. Peak current inhibition was observed during compound equilibration.

[2] = biological target: hERG channel (Homo sapiens, UniProt Q12809); assay: hERG electrophysiology, automated whole-cell patch clamp (Patchliner) in CHO-K1 cells stably expressing hERG
hERG channel, sequence (Q12809 whole entry): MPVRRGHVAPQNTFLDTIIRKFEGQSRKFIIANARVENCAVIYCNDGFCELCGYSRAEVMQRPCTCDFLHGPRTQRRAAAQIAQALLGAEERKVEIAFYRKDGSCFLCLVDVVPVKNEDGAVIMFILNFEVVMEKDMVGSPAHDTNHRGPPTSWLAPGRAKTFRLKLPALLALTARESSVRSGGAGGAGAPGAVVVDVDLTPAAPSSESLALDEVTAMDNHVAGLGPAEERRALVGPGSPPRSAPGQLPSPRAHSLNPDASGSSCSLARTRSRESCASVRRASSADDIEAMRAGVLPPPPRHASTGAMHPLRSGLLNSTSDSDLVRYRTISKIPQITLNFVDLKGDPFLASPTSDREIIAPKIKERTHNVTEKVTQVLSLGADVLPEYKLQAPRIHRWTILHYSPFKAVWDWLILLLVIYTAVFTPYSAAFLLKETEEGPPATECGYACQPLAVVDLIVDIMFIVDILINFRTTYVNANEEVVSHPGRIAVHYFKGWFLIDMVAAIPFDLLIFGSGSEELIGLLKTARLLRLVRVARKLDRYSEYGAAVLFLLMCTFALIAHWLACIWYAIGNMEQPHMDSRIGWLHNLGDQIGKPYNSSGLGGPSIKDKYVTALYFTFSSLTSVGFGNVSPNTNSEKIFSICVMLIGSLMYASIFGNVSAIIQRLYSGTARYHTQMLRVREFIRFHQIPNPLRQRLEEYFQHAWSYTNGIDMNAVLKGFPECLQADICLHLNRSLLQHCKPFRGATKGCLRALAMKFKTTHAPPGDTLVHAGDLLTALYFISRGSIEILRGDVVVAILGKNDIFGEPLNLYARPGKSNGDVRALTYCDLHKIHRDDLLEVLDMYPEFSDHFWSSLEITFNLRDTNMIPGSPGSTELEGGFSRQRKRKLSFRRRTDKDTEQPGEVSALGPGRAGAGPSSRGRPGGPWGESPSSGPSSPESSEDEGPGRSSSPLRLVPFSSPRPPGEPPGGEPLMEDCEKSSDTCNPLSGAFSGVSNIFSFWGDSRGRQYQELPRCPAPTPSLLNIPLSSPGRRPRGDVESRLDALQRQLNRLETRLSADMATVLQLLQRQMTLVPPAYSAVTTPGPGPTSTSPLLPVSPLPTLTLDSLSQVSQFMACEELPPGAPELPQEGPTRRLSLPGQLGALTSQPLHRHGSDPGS
Protocol: Evaluation of hERG Activities
This assay is used to evaluate the disclosed compounds's inhibition activities against the hERG channel.
CHO-K1 cells stably expressing hERG were grown in Ham's F-12 Medium with glutamine containing 10% heat-inactivated FBS, 1% penicillin/streptomycin, hygromycin (100 μg/ml) and G418 (100 μg/ml). Cells were grown in culture flasks at 37° C. in a 5% CO2-humidified incubator.
The cells were bathed in an extracellular solution containing 140 mM NaCl, 4 mM KCl, 2 mM CaCl2), 1 mM MgCl2, 5 mM Glucose, 10 mM HEPES; pH adjusted to 7.4 with NaOH; 295-305 mOsm. The internal solution contained 50 mM KCl, 10 mM NaCl, 60 mM KF, 20 mM EGTA, 10 mM HEPES; pH adjusted to 7.2 with KOH; 285 mOsm. All compounds were dissolved in DMSO at 30 mM. Compound stock solutions were freshly diluted with external solution to concentrations of 30 nM, 100 nM, 300 nM, 1 μM, 3 μM, 10 μM, 30 μM and 100 μM. The highest content of DMSO (0.3%) was present in 100 μM.
The voltage protocol (see Table B) was designed to simulate voltage changes during a cardiac action potential with a 300 ms depolarization to +20 mV (analogous to the plateau phase of the cardiac action potential), a repolarization for 300 ms to −50 mV (inducing a tail current) and a final step to the holding potential of −80 mV. The pulse frequency was 0.3 Hz. Control (compound-free) and compound pulse trains for each compound concentration applied contained 70 pulses.
Whole-cell current recordings and compound application were enabled by means of an automated patch clamp platform Patchliner (Nanion). EPC 10 patch clamp amplifier (HEKA) along with Patchmaster software (HEKA Elektronik Dr. Schulze GmbH) was used for data acquisition. Data were sampled at 10 kHz without filtering. Increasing compound concentrations were applied consecutively to the same cell without washouts in between.
AUC and PEAK values were obtained with Patchmaster (HEKA Elektronik Dr. Schulze GmbH). To determine IC50 the last single pulse in the pulse train corresponding to a given compound concentration was used. Obtained AUC and PEAK values in the presence of compound were normalized to control values in the absence of compound. Using Origin (OridinLab), IC50 was derived from data fit to Hill equation: Icompound/control=(100−A)/(1+([compound]/IC50)nH)+A, where IC50 is the concentration at which current inhibition is half-maximal, [compound] is the applied compound concentration, A is the fraction of current that is not blocked and nH is the Hill coefficient.

Row | IC50 [1] | Compound | IC50 [2]
1 | < 1 µM | NC[C@H]1C[C@@H](c2c(O)ccc(Cl)c2Cl)CCN1 (relative stereo) [Compound 74, (2R,4S)-rel-2-(aminomethyl)piperidin-4-yl]-3,4-dichlorophenol] | > 30 µM
2 | < 1 µM | NC(=O)[C@H]1C[C@@H](c2cc(Cl)c(Cl)cc2O)CCN1 (relative stereo) [Compound 85, (2R,4S)-rel-4-(4,5-dichloro-2-hydroxyphenyl)piperidine-2-carboxamide] | > 30 µM
3 | < 1 µM | O=S(=O)(NC[C@H]1C[C@@H](c2c(O)ccc(Cl)c2Cl)CCN1)C1CC1 (relative stereo) [Compound 97, N-(2R,4S)-rel-[[4-(2,3-dichloro-6-hydroxyphenyl)piperidin-2-yl]methyl]cyclopropanesulfonamide] | > 30 µM
4 | < 1 µM | NC(=O)C[C@H]1C[C@@H](c2c(O)ccc(Cl)c2Cl)CCN1 (relative stereo) [Compound 108, 2-[(2R,4S)-rel-4-(2,3-dichloro-6-hydroxyphenyl)piperidin-2-yl]acetamide] | > 30 µM
5 | < 1 µM | CS(=O)(=O)NC[C@H]1C[C@@H](c2c(O)ccc(Cl)c2Cl)CCN1 (relative stereo) [Compound 110, (2R,4S)-rel-N-[[4-(2,3-dichloro-6-hydroxyphenyl)piperidin-2-yl]methyl]methanesulfonamide] | > 30 µM
6 | < 1 µM | O=C(C[C@H]1C[C@@H](c2c(O)ccc(Cl)c2Cl)CCN1)NC1CCC1 (relative stereo) [Compound 111, N-cyclobutyl-(2R,4S)-rel-2-[4-(2,3-dichloro-6-hydroxyphenyl)piperidin-2-yl]acetamide] | < 30 µM
7 | < 1 µM | O=C(C[C@H]1C[C@@H](c2c(O)ccc(Cl)c2Cl)CCN1)N1CCOCC1 (relative stereo) [Compound 113, 2-[4-(2,3-dichloro-6-hydroxyphenyl)piperidin-2-yl]-1-(morpholin-4-yl)ethan-1-one] | > 30 µM
8 | < 1 µM | Cn1cc(NC(=O)C[C@H]2C[C@@H](c3c(O)ccc(Cl)c3Cl)CCN2)cn1 (relative stereo) [Compound 114, (2R,4S)-rel-2-[4-(2,3-dichloro-6-hydroxyphenyl)piperidin-2-yl]-N-(1-methyl-1H-pyrazol-4-yl)acetamide] | > 30 µM
9 | < 1 µM | CNC(=O)C[C@H]1C[C@@H](c2c(O)ccc(Cl)c2Cl)CCN1 (relative stereo) [Compound 115, 2-[4-(2,3-dichloro-6-hydroxyphenyl)piperidin-2-yl]-N-methylacetamide] | > 30 µM
10 | < 1 µM | CNC(=O)C[C@@H]1C[C@H](c2c(O)ccc(Cl)c2Cl)CCN1 (single isomer, unassigned) [Compound 14] | > 30 µM
11 | < 1 µM | CNC(=O)C[C@H]1C[C@@H](c2c(O)ccc(Cl)c2Cl)CCN1 (single isomer, unassigned) [Compound 30] | > 30 µM
12 | < 1 µM | O=C(C[C@@H]1C[C@H](c2c(O)ccc(Cl)c2Cl)CCN1)N1CCOCC1 (single isomer, unassigned) [Compound 32] | > 30 µM
13 | < 1 µM | NC(=O)[C@@H]1C[C@H](c2c(O)cc(Cl)c(Cl)c2Cl)CCN1 (single isomer, unassigned) [Compound 63] | < 30 µM
14 | < 1 µM | NC(=O)[C@H]1C[C@@H](c2c(O)cc(Cl)c(Cl)c2Cl)CCN1 (single isomer, unassigned) [Compound 65] | < 30 µM
15 | < 1 µM | O=C(C[C@H]1CC(c2c(O)ccc(Cl)c2Cl)CCN1)N1CCOCC1 (single isomer, unassigned) [Compound 67] | > 30 µM
16 | < 1 µM | NC(=O)[C@H]1C[C@@H](c2c(O)ccc(Cl)c2Cl)CCN1 (single isomer, unassigned) [Compound 70] | > 30 µM
17 | < 1 µM | NC(=O)[C@@H]1C[C@H](c2c(O)ccc(Cl)c2Cl)CCN1 (single isomer, unassigned) [Compound 73] | > 30 µM
18 | < 1 µM | CC(=O)NC[C@H]1C[C@@H](c2c(O)ccc(Cl)c2Cl)CCN1 (single isomer, unassigned) [Compound 86] | > 30 µM

Row | IC50 [1] | Compound | IC50 [2]
19 | < 1 µM | CC(=O)NC[C@@H]1CC(c2c(O)ccc(Cl)c2Cl)CCN1 (single isomer, unassigned) [Compound 89] | > 30 µM
20 | < 1 µM | Nc1nnc([C@@H]2C[C@H](c3c(O)ccc(Cl)c3Cl)CCN2)o1 (single isomer, unassigned) [Compound 105] | > 30 µM
21 | < 1 µM | CS(=O)(=O)NC[C@@H]1C[C@H](c2c(O)ccc(Cl)c2Cl)CCN1 (single isomer, unassigned) [Compound 107] | > 30 µM
22 | < 1 µM | NC(=O)C[C@@H]1C[C@H](c2c(O)ccc(Cl)c2Cl)CCN1 (single isomer, unassigned) [Compound 109] | > 30 µM
23 | < 1 µM | O=C(NC1CNC1)[C@H]1CC[C@H](c2c(O)ccc(Cl)c2Cl)N1 (single isomer, unassigned) [Compound 118] | > 100 µM
24 | < 1 µM | O=C(NC1CNC1)[C@@H]1CN[C@@H](c2c(O)ccc(Cl)c2Cl)C1 (single isomer, unassigned) [Compound 122] | > 100 µM
25 | < 1 µM | O=C([C@H](O)CO)N1CCC(c2c(O)ccc(Cl)c2Cl)CC1 [Compound 2, (2R)-1-[4-(2,3-dichloro-6-hydroxyphenyl)piperidin-1-yl]-2,3-dihydroxypropan-1-one] | > 30 µM
26 | < 1 µM | O=S(=O)(NCC1CC(c2c(O)ccc(Cl)c2Cl)CCN1)c1cccnc1 [Compound 6, N-(2R,4S)-rel-[[4-(2,3-dichloro-6-hydroxyphenyl)piperidin-2-yl]methyl]pyridine-3-sulfonamide] | > 30 µM
27 | < 1 µM | NC1CCN(c2cc(Cl)c(Cl)cc2O)CC1 [Compound 8, 2-(4-aminopiperidin-1-yl)-4,5-dichlorophenol] | < 30 µM
28 | < 1 µM | CN(C)C1CCN(c2cc(Cl)c(Cl)cc2O)CC1 [Compound 23, 4,5-dichloro-2-[4-(dimethylamino)piperidin-1-yl]phenol] | < 30 µM
29 | < 1 µM | CNC1CCN(c2cc(Cl)c(Cl)cc2O)CC1 [Compound 24, 4,5-dichloro-2-[4-(methylamino)pip-eridin-1-yl]phenol] | < 30 µM
30 | < 1 µM | CC1(N)CCN(c2cc(Cl)c(Cl)cc2O)CC1 [Compound 25, 2-(4-amino-4-methylpiperidin-l-yl)-4,5-dichlorophenol] | < 30 µM
31 | < 10 µM | NC(=O)C1CCCN(c2c(O)ccc(Cl)c2Cl)C1 (stereo not shown) [Compound 88, 1-(2,3-dichloro-6-hydroxyphenyl)piperidine-3-carboxamide] | 
32 | < 10 µM | NC(=O)[C@H]1CN(c2c(O)ccc(Cl)c2Cl)CCN1 [Compound 90, (2R)-4-(2,3-dichloro-6-hydroxyphenyl)piperazine-2-carboxamide] | 
33 | < 10 µM | NC(=O)[C@@H]1CN(c2c(O)ccc(Cl)c2Cl)CCN1 [Compound 92] | 
34 | < 10 µM | O=S(=O)(C1CCNC1)N1CCC(c2c(O)cc(Cl)c(Cl)c2Cl)CC1 (stereo not shown) [Compound 95, 3,4,5-trichloro-2-[1-(pyrrolidine-3-sulfonyl)piperidin-4-yl]phenol] | 
35 | < 1 µM | NC(=O)[C@H]1CN(c2c(O)cc(Cl)c(Cl)c2Cl)CCN1 [Compound 96, (2R)-4-(2,3,4-trichloro-6-hydroxyphenyl)piperazine-2-carboxamide] | 

Row | Compound | IC50 [1] | IC50 [2]
36 | Oc1cc(Cl)c(Cl)cc1C1CCNC1 (single isomer, unassigned) [Compound 38, 4,5-dichloro-2-(pyrrolidin-3-yl)phenol] | < 1 µM | < 30 µM
37 | NC(=O)[C@H]1CNCC[C@H]1c1cc(Cl)c(Cl)cc1O (single isomer, unassigned) [Compound 42] | < 1 µM | > 30 µM
38 | Oc1cc(Cl)c(Cl)cc1C1CCNCC1 [Compound 3, 4,5-dichloro-2-(piperidin-4-yl)phenol] | < 1 µM | < 30 µM
39 | CN1CCC(c2cc(Cl)c(Cl)cc2O)CC1 [Compound 4, 4,5-dichloro-2-(1-methylpiperidin-4-yl)phenol] | < 1 µM | < 30 µM
40 | Oc1cc(Cl)c(Cl)cc1N1CCNCC1 [Compound 5, 4,5-dichloro-2-(piperazin-1-yl)phenol] | < 10 µM | < 30 µM
41 | Oc1cc(Cl)c(Cl)cc1C1=CCNCC1 [Compound 9, 4,5-dichloro-2-(1,2,3,6-tetrahydropyridin-4-yl)phenol] | < 1 µM | < 30 µM
42 | Cc1cc(O)c(C2CCNCC2)cc1Cl [Compound 12, 4-chloro-5-methyl-2-(piperidin-4-yl)phenol] | < 10 µM | < 30 µM
43 | Oc1cc(Cl)c(Cl)cc1C1CCCNC1 (stereo not shown) [Compound 16, 4,5-dichloro-2-(piperidin-3-yl)phenol] | < 1 µM | < 30 µM
44 | Oc1ccc2ccccc2c1C1CCNCC1 [Compound 18, 1-(piperidin-4-yl)naphthalen-2-ol] | < 1 µM | < 30 µM
45 | Oc1cc(Cl)c(Cl)cc1C1CCNC1 (stereo not shown) [Compound 21, 4,5-dichloro-2-(pyrrolidin-3-yl)phenol] | < 1 µM | < 30 µM
